Measured values published in US12502362B2, “Inhibitors of nucleotidyltransferase superfamily enzymes as antibiotics” (priority 2017, dated 2025).
Where two headings read alike, the source gives them in different places.

Assays:
[1] = system: Staphylococcus epidermidis; assay type: cell-based
Experimental: (§1) It was also tested whether compounds #63 and #285 can inhibit other coagulase-negative Staphylococcus (CNS) including S. epidermidis, S. hominis, etc. […].

[2] = system: Staphylococcus hominis; assay type: cell-based
Experimental: as §1

[3] = system: Klebsiella pneumonia; assay: Antibiotic susceptibility of Klebsiella pneumonia strains; assay type: cell-based
Description: (§2) All these MDR-bacteria are at least resistant to two classes of the antibiotics among five groups and/or specific antibiotics including quinolones/fluorquinolones, carbapenems, cephalosporins, aminoglycosides and piperacillin-tazobactam.

[4] = system: Enterobacter cloacae complex; assay: Antibiotic susceptibility of Enterobacter cloacae complex strain; assay type: cell-based; conditions: Ecc1 (Enterobacter cloacae complex)
Description: as §2

[5] = system: S. aureus ATCC strains and MRSA; assay type: cell-based, Staphylococcus aureus
[6] = system: Morganella morganii; assay: Antibiotic susceptibility of Morganella morganii strain; assay type: cell-based; conditions: Mm1 (Morganella morganii)
Description: as §2

[7] = system: Citrobacter koseri; assay: Antibiotic susceptibility of Citrobacter koseri strain; assay type: cell-based; conditions: Ck1 (Citrobacter koseri)
Description: as §2

[8] = system: MDR Acinetobacter baumannii; assay type: cell-based
Description: as §2

[9] = system: MDR E. coli; assay type: cell-based
Description: as §2

[10] = system: Coagulase negative Staphylococcus; assay: Antibiotic susceptibility of coagulase negative Staphylococcus strains; assay type: cell-based

C[C@H]1COc2c(N3CCN(C)CC3)c(F)cc3c(=O)c(C(=O)O)cn1c23 [LVX, levofloxacin]
Antibiotic susceptibility ([1]; Se1 (Staphylococcus epidermidis)): R
Antibiotic susceptibility ([1]; Se2 (Staphylococcus epidermidis)): S
Antibiotic susceptibility ([1]; Se3 (Staphylococcus epidermidis)): R
Antibiotic susceptibility ([1]; Se4 (Staphylococcus epidermidis)): R
Antibiotic susceptibility ([1]; Se5 (Staphylococcus epidermidis)): R
Antibiotic susceptibility ([2]; Sh1 (Staphylococcus hominis)): R
Antibiotic susceptibility ([2]; Sh2 (Staphylococcus hominis)): S
Antibiotic susceptibility ([2]; Sh3 (Staphylococcus hominis)): S
Antibiotic susceptibility ([3]; Kp1 (Klebsiella pneumonia)): S
Antibiotic susceptibility ([3]; Kp6 (Klebsiella pneumonia)): R
Antibiotic susceptibility [4]: S
Antibiotic susceptibility ([5]; S. aureus ATCC 25923): S
Antibiotic susceptibility ([5]; S. aureus ATCC 29213): S
Antibiotic susceptibility ([5]; S. aureus ATCC BAA 976): S
Antibiotic susceptibility ([5]; S. aureus ATCC BAA 977): S
Antibiotic susceptibility ([5]; S. aureus ATCC BAA 1026): R
Antibiotic susceptibility ([5]; Sa1 (MRSA)): R
Antibiotic susceptibility ([5]; Sa2 (MRSA)): R
Antibiotic susceptibility ([5]; Sa3 (MRSA)): R
Antibiotic susceptibility ([5]; Sa6 (MRSA)): R
Antibiotic susceptibility ([5]; Sa7 (MRSA)): S
Antibiotic susceptibility ([5]; Sa9 (MRSA)): R
Antibiotic susceptibility ([5]; Sa11 (MRSA)): R
Antibiotic susceptibility ([5]; Sa12 (MRSA)): R
Antibiotic susceptibility ([5]; Sa14 (MRSA)): R
Antibiotic susceptibility ([5]; Sa15 (MRSA)): R
Antibiotic susceptibility ([5]; Sa16 (MRSA)): R
Antibiotic susceptibility ([5]; Sa17 (MRSA)): R
Antibiotic susceptibility ([5]; Sa18 (MRSA)): R
Antibiotic susceptibility ([5]; Sa19 (MRSA)): S
Antibiotic susceptibility ([5]; Sa20 (MRSA)): R
Antibiotic susceptibility ([5]; Sa21 (MRSA)): S
Antibiotic susceptibility ([5]; Sa22 (MRSA)): S
Antibiotic susceptibility ([5]; Sa23 (MRSA)): S
Antibiotic susceptibility [6]: R
Antibiotic susceptibility [7]: I
Antibiotic susceptibility ([8]; Ab1 (Acinetobacter baumannii)): R
Antibiotic susceptibility ([8]; Ab2 (Acinetobacter baumannii)): I
Antibiotic susceptibility ([8]; Ab3 (Acinetobacter baumannii)): R
Antibiotic susceptibility ([8]; Ab4 (Acinetobacter baumannii)): R
Antibiotic susceptibility ([8]; Ab5 (Acinetobacter baumannii)): R
Antibiotic susceptibility ([9]; Ec1 (E. coli)): S
Antibiotic susceptibility ([9]; Ec2 (E. coli)): R
Antibiotic susceptibility ([9]; Ec3 (E. coli)): S
Antibiotic susceptibility ([9]; Ec4 (E. coli)): R
Antibiotic susceptibility ([9]; Ec5 (E. coli)): R
Antibiotic susceptibility ([10]; CNS1 (Coagulase negative Staphylococcus)): S
Antibiotic susceptibility ([10]; CNS2 (Coagulase negative Staphylococcus)): R
